From US20020155172A1, “Methods and compounds for decreasing cell toxicity or death” (priority 2000, published 2002)

Legend:
[1] = system: wild type mice and R62 mice; assay: Tolerability of Congo red in mice; format: in vivo
Method: The latter procedure involved administration of 0.25 μl of the drug (1 mg/ml in 0.4% DMSO) per hour, for a period of at least 28 days. The treatment began at the latter part of the seventh week. When treatment began, although very little motor symptomology was observed, tremors were becoming apparent. Polyglutamine inclusions were readily detected at the beginning of treatment. The effect of Congo red on the polyglutamine-induced toxicity in muscle strength in the animal model R62 was quantified by the use of a rotorod.
In addition, the ability of Congo red to inhibit the formation as well as to disrupt preformed polyglutamine oligomers allowed us to examine the role of polyglutamine aggregates in neuronal dysfunction and degeneration characteristic of polyglutamine expansion diseases. In these studies, we used the animal model of Huntington's disease (R62), which expresses the truncated form of huntingtin with 139 CAG repeats Mangiarini et al. (supra). We took advantage of our finding that in addition to inhibiting polyglutamine oligomerization, Congo red also disrupts pre-formed oligomers, thus allowing assessment of the impact of Congo red on disease progression after formation of polyglutamine aggregates and the onset of symptoms. R62 transgenic mice and CBAxC57B1/6 F1 wild type littermates were obtained from Jackson Laboratories (Bar Harbor, Me.) at the age of five weeks. […]

[2] = system: polyglutamine aggregates of HA-Q79-GFP expressing cells; assay: Filter assay (0.2 μm acetate filter); format: cell-based
Method: FIG. 6D is a scanned image of a filter showing the effect of Congo red on pre-formed oligomers as assessed by the filter assay described herein. Cells were treated with PBS or 100 μM of Congo red 6 hours after transfection with Q79-GFP. Lysates from these cells were obtained 42 hours later, and passed through a 0.2 micron pore filter. In addition, Q79 aggregates were treated with Congo red after they were recovered from cells to test for disruption of pre-formed aggregates.
FIG. 7C is an image of an immunoblot of lysates from Q79 expressing cells that were treated with PBS or Congo red during or after transfection, as indicated in the Figure and passed through a 0.2 micron filter. Endogenous caspase-8 and the adapter protein FADD were trapped in the filter in cell lysates containing oligomerized polyglutamine repeats, and probed using a caspase-8 or FADD antibody.
To further confirm the ability of Congo red to inhibit the formation of polyglutamine aggregates, as well as to disrupt preformed aggregates, we analyzed the state of polyglutamine aggregation by examining equal aliquots of total lysates from Congo-red- or vehicle-treated HA-Q79-GFP expressing cells, or the lysates that were treated with Congo red or vehicle after cell lysis. The cell lysates were passed through a 0.2 μm acetate filter and then visualized by immunostaining with anti-HA antibody (FIG. 6D).

GST-Q81 beads = assay: Chemical absorption assay, Q81; format: binding; settings: 25 μM of each (FIG. 6B)
Method: FIG. 6B is a graph of the percent of binding of various compounds to amyloid-like Q81 aggregates measured using a chemical absorption assay. The anti-amyloid compounds minocycline, Chrysamine G, Rolitetracycline, iota carrageenan, dextran 500 (dextran), or Congo red (25 μM of each) were pre-absorbed with Q81 GST recombinant protein and the percentage absorbance of the compound remaining in the supernatant after absorption with GST-Q81 beads is plotted on the y-axis.
To determine if Congo red and its derivatives directly bind to expanded polyglutamine aggregates, we designed a chemical absorption assay. This assay measures the remaining Congo red in the supernatant after incubating the supernatant with GST-tagged polyglutamine beads, and removing the GST-polyglutamine beads by centrifugation. This assay was carried out as follows. Recombinant protein GST-Q19, GST-Q62, and GST-Q81 (containing 19, 62, and 81 polyglutamines, respectively) was purified from E. coli by glutathione beads. After several washes with PBS containing protease inhibitors, the beads were allowed to settle to the bottom of the tube at 24° C. for 10 minutes. The polyglutamine-bound beads were aliquoted and diluted with two volumes of 10 μg/ml of Congo red in PBS. The beads were mixed and centrifuged at 15,000 rpm for 2 minutes and the supernatant was removed and diluted 1:100. The percentage absorbance of the compound remaining in the supernatant after absorption with the GST-polyQ beads was then detected. In addition, Congo red- or PBS-only treated polyglutamine polypeptide bead pellets were washed three times with 100 volumes of PBS and then the protein was separated by 12% polyacrylamide gels and immunoblotted as mentioned above. Some blots were used for immunostaining with anti-polyglutamine antibody (EM48). Other blots were left unstained to visualize the red color of Congo red that entered the gel along with the polyglutamine protein.
Binding of the above-identified compounds to amyloid-like Q81 aggregates was also assessed by a chemical absorption assay. The compounds indicated in FIG. 19 (25 μM of each) were pre-absorbed with a Q81 GST recombinant protein and the percentage absorbance of the compound remaining in the supernatant after absorption with GST-Q81 beads was then detected.

[3] = system: HeLa cells co-transfected with a luciferase construct together with Q79-GFP; assay: Protein synthesis by luciferase activity in Q79 expressing HeLa cells; format: cell-based; settings: 48 hours after transfection

Nc1c(/N=N/c2ccc(-c3ccc(/N=N/c4cc(S(=O)(=O)O)c5ccccc5c4N)cc3)cc2)cc(S(=O)(=O)O)c2ccccc12 [Congo red, diphenyldiazo-bis-alpha-napthylaminesulfonate]
gross morphological abnormalities or symptoms ([1]; IP or ICV infusion, normal wild type mice or pre- or post-symptomatic R62 mice): no gross morphological abnormalities or induction of any obvious symptoms | drug toxicity ([1]; intraperitoneal injection up to 13 mg/kg every 48 hours for two weeks): no obvious drug toxicity | polyglutamine aggregates retained by 0.2 μm filter, lysates treated ([2]; cell lysates treated with Congo red after cell lysis): undetectable | polyglutamine aggregates retained by 0.2 μm filter, cells treated ([2]; cells treated with Congo red (100 μM) 6 hours after transfection): undetectable | FADD and caspase-8 in a complex retained by 0.2 μm filter ([2]; lysates of Q79 expressing cells): not in Congo red-treated lysates | binding to 81-repeat polyglutamine polypeptide (GST-Q81 beads): binds to expanded polyglutamines | loss of luciferase activity (protein synthesis) [3]: prevented the loss of luciferase activity
